Results from patent US20100040607A1, “Combination Therapy with Inhibitors of HMGB and Caspase for the Treatment of Inflammatory Diseases” (priority 2005, published 2010).
Peptide text beside a SMILES is read from it. * marks the point of attachment. Cbz = O=C(OCc1ccccc1)*; CH2F = FC*

What was measured:
apoptotic cells = experiment: Caspase 3 and TUNEL staining of spleen and thymus sections of CLP septic mice; assay type: in vivo, BALB/c mice; conditions: 0.5 mg IP at 90 min after surgery, 24 h
Protocol: Cecal ligation and puncture (CLP) surgery was performed on BALB/c mice to induce sepsis as described previously (Fink, M. P. and Heard, S. O., J. Surg. Res. 49:186-96 (1990); Friedman, G., et al., Crit. Care Med. 26:2078-86 (1998); Remick, D., et al., Shock 4:89-95 (1995)). At 90 min after the surgery, 0.5 mg of either Z-VAD-FMK (VAD) caspase inhibitor or Z-FA-FMK control peptide was administered to each mouse by intraperitoneal injection. Mice were euthanized 24 h after CLP.
Apoptotic cells were detected by performing Caspase 3 staining (FIG. 8A) and TUNEL staining (FIG. 8B) on fixed spleen and thymus sections from sacrificed mice that were either untreated (Normal) or treated with Z-VAD-FMK (VAD) caspase inhibitor (CLP+VAD) or Z-FA-FMK control peptide (CLP+ctrl) following CLP surgery. […] mice were analyzed in each group. Tissue sections were cut at 5 μm. Sections were placed on glass slides and subjected to staining using a TUNEL assay, performed according to manufacturer's protocol (ApoAlert DNA fragmentation assay kit, BD BioSciences, Palo Alto, Calif., Cat# K2024-1). […] Four to five mice were analyzed from each group.

HMGB1 = HMGB1 protein levels in BAL, peritoneal fluid and serum of CLP septic mice; assay type: in vivo, BALB/c mice; conditions: 0.5 mg IP at 90 min after surgery, 24 h, BAL fluid
Protocol: Cecal ligation and puncture (CLP) surgery was performed on BALB/c mice to induce sepsis as described previously (Fink, M. P. and Heard, S. O., J. Surg. Res. 49:186-96 (1990); Friedman, G., et al., Crit. Care Med. 26:2078-86 (1998); Remick, D., et al., Shock 4:89-95 (1995)). At 90 min after the surgery, 0.5 mg of either Z-VAD-FMK (VAD) caspase inhibitor or Z-FA-FMK control peptide was administered to each mouse by intraperitoneal injection. Mice were euthanized 24 h after CLP. HMGB1 protein levels in bronchoalveolar fluid (BAL), peritoneal fluid and serum were measured (FIG. 6). Protein levels of certain serum (e.g., IL-6, KC, MIP-2) and BAL (e.g., KC, MW-2) cytokines were determined (FIG. 7). Cell-conditioned medium, lung lavage fluid or peritoneal lavage fluid (100-2000) were first concentrated by passing through Centricon 10 (Millpore Corp. Bedford, Mass.). Cytokines were measured by using an enzyme-linked immunosorbent assay (ELISA) kit according to the instructions of the manufacturer (R & D System Inc., Minneapolis, Minn.). […] Western blots were scanned with a silver image scanner ([…] Limited, Beaverton, Oreg.), and the relative band intensity was quantified by using the NIH image 1.59° software. The levels of HMGB1 were calculated with reference to standard curves generated with purified HMGB1.

IL-6, KC, MIP-2 = experiment: Cytokine levels (IL-6, KC, MIP-2) in serum and BAL of CLP septic mice by ELISA; assay type: in vivo, BALB/c mice; conditions: 0.5 mg IP at 90 min after surgery, 24 h
Protocol: Cecal ligation and puncture (CLP) surgery was performed on BALB/c mice to induce sepsis as described previously (Fink, M. P. and Heard, S. O., J. Surg. Res. 49:186-96 (1990); Friedman, G., et al., Crit. Care Med. 26:2078-86 (1998); Remick, D., et al., Shock 4:89-95 (1995)). At 90 min after the surgery, 0.5 mg of either Z-VAD-FMK (VAD) caspase inhibitor or Z-FA-FMK control peptide was administered to each mouse by intraperitoneal injection. Mice were euthanized 24 h after CLP. HMGB1 protein levels in bronchoalveolar fluid (BAL), peritoneal fluid and serum were measured (FIG. 6). Protein levels of certain serum (e.g., IL-6, KC, MIP-2) and BAL (e.g., KC, MW-2) cytokines were determined (FIG. 7). Cell-conditioned medium, lung lavage fluid or peritoneal lavage fluid (100-2000) were first concentrated by passing through Centricon 10 (Millpore Corp. Bedford, Mass.). Cytokines were measured by using an enzyme-linked immunosorbent assay (ELISA) kit according to the instructions of the manufacturer (R & D System Inc., Minneapolis, Minn.). To determine HMGB1 concentrations, Centricon 10-filtered samples were fractionated by SDS-PAGE, transferred to PVDF Immunoblot membrane (Bio-Rad laboratories, Hercules, Calif.), and probed with polyclonal anti-HMGB1 IgG (5 μg/ml) for Western blot. Donkey anti-rabbit IgG conjugated with HRP (Amersham, Little Chalfont Buckinghamshire, England) and used at final dilution of 1:5,000. Polyclonal antibodies raised against purified HMGB1 were generated in rabbits (Cocalico Biologicals, Inc., Reamstown, Pa.) and IgG was purified using protein A agarose according to manufacturer's instructions (Pierce, Rockford, Ill.). Western blots were scanned with a silver image scanner ([…] Limited, Beaverton, Oreg.), and the relative band intensity was quantified by using the NIH image 1.59° software. The levels of HMGB1 were calculated with reference to standard curves generated with purified HMGB1.

RAW 264.7 cells [1] = experiment: LPS-induced HMGB1 protein in RAW 264.7 cell supernatants by Western blot; assay type: cell-based, Murine; conditions: LPS 200 ng/ml, 0.1 to 10 μM, 16 h
Protocol: Treatment of RAW 264.7 cells with caspase inhibitor and Western blotting of HMGB1. Murine macrophage-like RAW 264.7 cells (American Type Culture Collection, ATCC, Rockville, Md.) were cultured in a 24-well culture dish in RPMI 1640 medium (Life Technologies, Grand Island, N.Y.), supplemented with 10% fetal bovine serum (Gemini, Catabasas, Calif.), penicillin and streptomycin (Life Technologies). Cells were used at 90% confluence and treatment was carried out in serum-free Opti-MEM I medium (Life Technologies). The cells were treated with LPS (200 ng/ml, Sigma, E. coli. 0111:B4) and various concentrations, ranging from 0.1 to 10 μM, of either the caspase inhibitor, Z-VAD-FMK (BD Biosciences), or a control peptide, Z-FA-FMK (BD Biosciences), in Opti-MEM I medium (Life Technologies, Grand Island, N.Y.). After 16 h, cell culture supernatants were concentrated by Centricon 10 (Millpore Corp., Bedford, Mass.) and HMGB1 levels were determined by Western blot. […] Western blots were scanned with a silver image scanner (Silverscanner II, Lacie Limited, Beaverton, Oreg.), and the relative band intensity was quantified using the NIH image 1.59 software. The levels of HMGB1 were calculated with reference to standard curves generated with purified HMGB1.

RAW 264.7 cells [2] = experiment: HMGB1 translocation in LPS-treated RAW 264.7 cells by immunofluorescence; assay type: cell-based, Murine; conditions: LPS 100 ng/ml, 1 μM, 16 hours
Protocol: RAW 264.7 cells were plated in 8-well slide chambers (Lab-Tek, Nalge Nunc Internationals, Naperville, Ill.) and used at 60% confluence. Cells were incubated with LPS (100 ng/ml) alone, or LPS (100 ng/ml) with either 1 μM Z-VAD-FMK (VAD) or Z-FA-FMK control peptide for 16 hours in Opti-MEM I medium. Cells were washed 3 times with phosphate-buffered saline (PBS) at pH 7.2 and fixed in 2% neutral formalin for 20 minutes at room temperature. Polyclonal anti-HMGB1 antibody was added at a concentration of 2.5 μg/ml and incubated for an additional 30 minutes at room temperature. FITC-labeled anti-rabbit IgG was added (1:300 dilution, Sigma, St. Louis, Mo.; Cat. No. F9887). Cells were then washed 3 times with PBS (pH 7.2) with 0.1% saponin (Sigma Cat. #S4521), and mounted for fluorescent confocal microscopy analysis. To mount cells on a slide, one drop of VECTASHIELD mounting medium (Vector Lab, Cat#H-10000) was dispensed on to the section and allowed to cover the entire section. A coverslip was added, and the slides were imaged using a Zeiss, Axiovert 200 microscope (Gottingen, Germany).

Compound | number of apoptotic cells in spleen and thymus sections (apoptotic cells) | HMGB1 expression in septic mice (HMGB1) | IL-6 expression in septic mice (IL-6, KC, MIP-2) | KC expression in septic mice (IL-6, KC, MIP-2) | MIP-2 expression in septic mice (IL-6, KC, MIP-2) | LPS-induced expression of HMGB1 protein (RAW 264.7 cells [1]) | HMGB1 translocation to the cytoplasm (RAW 264.7 cells [2])
COC(=O)CC(NC(=O)C(C)NC(=O)C(NC(=O)OCc1ccccc1)C(C)C)C(=O)CF (stereo not drawn) [Z-VAD-FMK, carbobenzoxyl-valyl-alanyl-aspartyl-[O-methyl]-fluoromethylketone] (Cbz-Val-Ala-Asp(OMe)-CH2F; configuration not given here) | reduced the number of apoptotic cells | inhibited expression | inhibited expression | inhibited expression | inhibited expression | inhibited LPS-induced expression of HMGB1 protein in a dose-dependent manner | inhibited HMGB1 translocation to the cytoplasm
CC(NC(=O)[C@H](Cc1ccccc1)NC(=O)OCc1ccccc1)C(=O)CF (some centres unmarked) [Z-FA-FMK] |  |  |  |  |  | did not have an effect on HMGB1 expression | 
